This is an account of results in article PMC10113214 (Scientific Reports, 2023).

Data set [1] addresses T1, Human neutrophil elastase (Homo sapiens, UniProt P08246).
T1 construct: purchased Sigma-Aldrich
T1 sequence (P08246 30-267): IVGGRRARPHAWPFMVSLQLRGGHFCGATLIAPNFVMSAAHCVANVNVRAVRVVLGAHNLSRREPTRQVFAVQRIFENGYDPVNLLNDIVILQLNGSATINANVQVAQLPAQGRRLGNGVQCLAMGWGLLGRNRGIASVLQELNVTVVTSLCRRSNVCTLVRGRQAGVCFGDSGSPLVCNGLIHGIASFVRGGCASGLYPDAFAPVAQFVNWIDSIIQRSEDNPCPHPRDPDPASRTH
The data set can be described thus: Elastase enzymatic cleavage. The format is in vitro ADME. As to conditions: human neutrophil elastase 150 nM, peptide 1 mM, 30 min, 37 °C; for identified fragments of peptides after elastase digestion (most abundant MS signals): 300 rpm, 0.1 M Tris HCl, 500 mM NaCl, 0.05% Triton X-100, 20 mM CaCl2 pH 7.5, HPLC and MALDI or LC-MS. The method, then: Human neutrophil elastase (EC No. 3.4.21.37, Sigma-Aldrich) was used to study peptide susceptibility to that enzyme. Peptides were dissolved in 0.1 M Tris HCl, 500 mM NaCl, 0.05% Triton X-100, 20 mM CaCl2 pH 7.5 buffer mixture. Peptides (final concentration 1 mM) were mixed with the enzyme (final concentration 150 nM) and incubated for 30 min. in a thermoshaker (37 °C, 300 rpm). The reaction was stopped by a 10% aqueous solution of TFA. The results were analyzed using HPLC and MALDI or LC–MS. Details of this experiment are described in the Supplementary Data.

The subject of another data set is 46BR.1N fibroblasts. The data set can be described thus: LDH cytotoxicity assay, 46BR.1N. The conditions noted are these: 150 µg/ml, 48 h, 3 independent experiments, n = 12. The data set is classed as cell-based, human. As to the method: Human HaCaT keratinocytes (DKFZ, Heidelberg, Germany)[47],[48], the human dermal fibroblast 46BR.1N cell line (ECACC, Sigma Aldrich Co.) and human primary dermal fibroblasts used in this study were routinely cultured in culture flasks (growth surface area: 25 cm^2) in DMEM-HG medium supplemented with 10% fetal bovine serum, 100 U/mL penicillin and […] streptomycin under standard conditions.
Briefly, the HaCaT and 46BR.1N cells were seeded in 96-well plates at a density of 5000 per well. Cell stimulation with RADA derivatives was performed using a protocol described before[49],[50]. Both assays were performed according to the manufacturers’ instructions (XTT- Roche, Cat. No. 11465015001; LDH- Takara, Cat. No. MK401).

A short description of data set [2]: Transmission electron microscopy of nanofibres. The conditions noted are these: 1% gel in PBS diluted to 0.001%, uranyl acetate stain. The data set is classed as physicochemical. The method, then: 1% gel solutions were prepared and incubated in PBS. The samples were then diluted to 0.001% concentration. A drop of solution was applied to a microcellulose membrane and stained with a 1.5% solution of uranyl acetate. The images were registered on a Tecnai Spirit BioTwin FEI Transmission Electron Microscope operating at 120 kV.

In data set [3] the test system is full-thickness excisional dorsal skin wounds. In words: Skin wound healing model in mice. The format is in vivo, BALB/c mice. The method, then:
Eight to ten-week-old BALB/c female mice were used for these experiments. All experimental procedures were approved by the Local Ethics Committee for Animal Experimentation in Bydgoszcz, Poland (Approval No. 49/2016). The study was conducted in compliance with the ARRIVE gudidelines. All animal handling methods were carried out in accordance with European Union Commission Recommendation of 18 June 2007 on guidelines for the accommodation and care of animals used for experimental and other scientific purposes. Before experiments, mice were randomized and divided into groups comprising six individuals. The mice were anaesthetized with inhaled 2–5% isoflurane. The skin on the dorsum was shaved and disinfected. After the skin was folded and raised cranially and caudally along the spine, the mouse was placed in a lateral position, and the folded skin was pierced with a 6.0 mm biopsy punch to make two through-and-through symmetrical wounds. Next, 10 µL of peptide hybrid hydrogel was applied onto each wound. Every gel was prepared in sterile conditions in biological safety cabinet, using sterile water to final concentration of 10 mg/ml (1%). Then the gels were incubated for 24 h allowing it to assemble. Control mice were treated with RADA16-I. The wounds were covered with a transparent Tegaderm TM dressing to protect the wound from outer environment of the cage and other animals. It was fastened with an adhesive plaster wrapped around the animal’s torso. The peptide hybrids were applied daily to the wounds for five consecutive days. The dressings were replaced daily in the first five days of the experiment and every second day until the end of the second week of the experiment. To measure the wound areas the wounds were photographed with a ruler placed next to the injury site. Wound areas were calculated using the computer-assisted image analysis program ImageJ[51].

A short description of data set [4]: Circular dichroism, conformation and thermal stability of β-sheet. The data set is classed as physicochemical. The method, then: The molar ellipticity of peptides were registered on a Jasco J-815 spectrometer (JASCO, Easton, MD, USA). Solutions of peptide hybrids were prepared in water solution (10 mg/ml), incubated at 37 °C for 4 h and then diluted to a final concentration of 0.20 mg/ml. CD spectra measurements were performed at 25 °C, 30 °C, 35 °C, 40 °C, 45 °C, 50 °C, 55 °C and 60 °C, at 190–260 nm wavelength and at a scan speed of […]. The background of the solvent was subtracted. The results are presented as the relationship of mean residue molar ellipticity (MRME) [deg × cm^2 × dmol^−1] to wavelength [nm]. Measurements were performed in triplicate. In order to determine the peptides’ denaturation temperatures, the molar ellipticity rotatory angle at a fixed wavelength of 196 nm, [θ]196, was measured as a function of temperature (max 100 °C). CD temperature measurements were carried out up to a temperature of 100 °C. Above this temperature, the cure was extrapolated with GraphPad Prism 8 software using the 4PL curve fit function. The denaturation temperature was determined as the temperature at which the change in ellipticity (θ) was half complete.
(In general: Circular dichroism is widely used to follow secondary structure.)

A further data set can be described thus: Rheology of hydrogels. As to conditions: 1% hydrogel, 37 °C. The data set is classed as physicochemical. The method, then: Rheological parameters of the hydrogels were identified using an MCR 302 rheometer (Anton Paar GmbH, Graz, Austria). The rheometer was equipped with a CP50-1 stainless steel cone-and-plate system of 50 mm diameter, 1° cone angle and 50 µm cone truncation and a Peltier controlled temperature unit. An aliquot of 900 µL of 1% hydrogel was applied to a plate cone. The linear viscoelastic (LVE) region was determined through an amplitude sweeps: shear strain (0.01–100% at 6 rad s^−1) and shear stress (0.001–10 Pa at 6.28 rad s^−1). Frequency sweep were measured from 0.01 to 100 rad s^−1 at 2.5% strain. The frequency dependence of the storage modulus (G’) and loss modulus (G”) of the hydrogels were measured at 37 °C. All experiments were carried out in triplicate and reported as the mean of three repeats.

Molecules are shown by their SMILES.

On to `CC(=O)N[C@@H](CCCNC(=N)N)C(=O)N[C@@H](C)C(=O)N[C@@H](CC(=O)O)C(=O)N[C@@H](C)C(=O)N[C@@H](CCCNC(=N)N)C(=O)N[C@@H](C)C(=O)N[C@@H](CC(=O)O)C(=O)N[C@@H](C)C(=O)N[C@@H](CCCNC(=N)N)C(=O)N[C@@H](C)C(=O)N[C@@H](CC(=O)O)C(=O)N[C@@H](C)C(=O)N[C@@H](CCCNC(=N)N)C(=O)N[C@@H](C)C(=O)N[C@@H](CC(=O)O)C(=O)N[C@@H](C)C(=O)NCC(=O)NCC(=O)NCC(=O)N[C@@H](C)C(=O)N[C@@H](C)C(=O)N1CCC[C@H]1C(=O)N[C@H](C(=O)NCC(=O)NCC(=O)NCC(=O)N[C@@H](Cc1c[nH]cn1)C(=O)N[C@@H](CCCCN)C(N)=O)C(C)C` [RADA-GHK, Ac-(Arg-Ala-Asp-Ala)4-Gly-Gly-Gly-Ala-Ala-Pro-Val-Gly-Gly-Gly-His-Lys-NH2], for which the results for the “identified fragments of peptides after elastase digestion (most abundant MS signals)” value in data set [1] (fragment Ac-(RADA)4-GGG-AAPV-COOH) and in data set [1] (fragment NH2 -GHK-NH2) were “Ac-(RADA)4-GGG-AAPV-COOH” and “NH2 -GHK-NH2”, respectively. In addition, in data set [1] (pH 7.5 buffer, HPLC, mass spectrometry), the “main / predominant fragments of elastase digestion” value is recorded as “Gly^26His^27Lys^28”. In addition, in the data set on 46BR.1N fibroblasts, the “cytotoxicity (LDH), slight effect” value is “ca. 15%”. In addition, the “fibre thickness (TEM)” value in data set [2] is on record as “about 3 nm”. In addition, in data set [3] (BALB/c female mice, 6.0 mm punch dorsal wounds, 10 µL 1% hydrogel topically daily for five days, n = 6, SD), the “wound closure on day 7” value was found to be 41.8 ± 16.1%. The “wound healing compared to RADA16-I” value in data set [3] (BALB/c mice, 1% hydrogel topically, day 2 up to day 14) was “Accelerated wound healing”. Moreover, the “heat stability of β-sheet structure (rank)” value in data set [4] (CD scans at different temperatures) is “highest”. Moreover, the “temperature of first disruption of the β-sheets” value in data set [4] (CD, [θ]196 nm as function of temperature 4–100 °C, gel 10 mg/ml in water, 37 °C 4 h, diluted to 0.20 mg/ml, decrease of molar ellipticity) was roughly 65 °C. Further, in data set [4] (CD, [θ]196 nm vs temperature, 0.20 mg/ml in water, above 100 °C curve extrapolated, 4PL fit), the “transition temperature (half β-conformation, half disordered)” value is 94 °C. Further, the “storage modulus G’” value in the data set “Rheology of hydrogels” (cone-plate, frequency sweep 0.01–100 rad s−1 at 2.5% strain (Fig. 9 legend: 1%), mean of three repeats) came out at 550 Pa. In “Rheology of hydrogels” (strain sweep, ω = 6.28 rad/s), the “shear strain above which the gel behaves like a liquid (G” > G’)” value is recorded as “above 30%”.
